According to patent US20100233172A1, “METHODS OF INHIBITING QUIESCENT TUMOR PROLIFERATION” (Bristol-Myers Squibb Company, priority 2008, published 2010):

How the values were obtained:
HCT-116 cells [1] = assay: Clonogenic assay, proliferating (P) versus quiescent (Q) cells; format: cell-based, human; conditions: for IC90: Homo sapiens, HCT-116, P cells, 16 hr treatment; for P/Q selectivity: ratio derived from the IC90s on HCT116 cells
Protocol: Tumor Cell Lines. […] Proliferating cultures were set up by plating 3×10^5 cells in 10 ml of RPMI medium in T75 flasks on day 0 and treated with compounds (dissolved in fresh medium) on day 2 or 3. Quiescent cultures were set up by plating 3×10^5 cells in 10 ml of RPMI media in T75 flasks on day 0, changing medium on day 2, and treated with drugs dissolved in spent media on day 6 for 17 hr.
Clonogenic Assay. […] After 10 days incubation at 37° C., colonies were stained with crystal violet.

HCT/VM46 xenograft = assay: HCT/VM46 multidrug resistant colon carcinoma xenograft; format: in vivo, mice
Description: FIG. 5. […] Panel c. […] Therefore, the consistently observed synergy of the combinations is highly sequence dependent, in vitro and in vivo.

HCT116 xenografts = HCT116 xenografts in nude mice; format: in vivo; conditions: at MTD: 600 mg/kg; for Activity in vivo, cures: cures per mice
[2] = target: T1, Rab geranylgeranyl transferase (GGTII) (Homo sapiens, UniProt P53611+Q92696); assay: Prenyltransferase enzyme assay, RabGGT; format: biochemical
T1 sequence (Q92696 1-567): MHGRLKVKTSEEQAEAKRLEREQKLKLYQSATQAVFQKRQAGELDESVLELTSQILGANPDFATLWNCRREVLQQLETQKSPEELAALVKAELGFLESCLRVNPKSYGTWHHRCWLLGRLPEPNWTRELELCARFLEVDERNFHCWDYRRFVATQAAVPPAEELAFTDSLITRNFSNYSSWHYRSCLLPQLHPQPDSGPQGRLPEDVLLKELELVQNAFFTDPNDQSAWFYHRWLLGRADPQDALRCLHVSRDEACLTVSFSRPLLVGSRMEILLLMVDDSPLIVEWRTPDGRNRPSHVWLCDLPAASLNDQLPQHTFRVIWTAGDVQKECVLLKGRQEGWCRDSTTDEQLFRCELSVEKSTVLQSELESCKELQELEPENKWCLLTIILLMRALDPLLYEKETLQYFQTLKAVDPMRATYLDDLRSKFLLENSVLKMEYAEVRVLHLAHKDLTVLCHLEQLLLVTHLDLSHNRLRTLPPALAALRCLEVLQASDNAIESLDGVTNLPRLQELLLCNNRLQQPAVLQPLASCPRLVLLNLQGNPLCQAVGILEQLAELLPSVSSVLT
T1 sequence (P53611 1-331): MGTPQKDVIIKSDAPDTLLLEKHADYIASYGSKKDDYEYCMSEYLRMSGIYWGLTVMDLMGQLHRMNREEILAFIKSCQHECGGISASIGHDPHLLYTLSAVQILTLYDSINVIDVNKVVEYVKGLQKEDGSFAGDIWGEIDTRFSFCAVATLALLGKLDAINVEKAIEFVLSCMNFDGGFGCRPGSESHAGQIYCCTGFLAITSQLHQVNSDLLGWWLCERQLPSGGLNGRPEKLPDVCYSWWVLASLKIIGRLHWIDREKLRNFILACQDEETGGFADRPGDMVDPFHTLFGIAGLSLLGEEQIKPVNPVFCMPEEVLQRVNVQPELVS
Protocol: (§1) Enzyme Assays. Prenyltransferases and H-Ras processing inhibition were carried out as described earlier (Hunt et al., Rose et al., Lackner et al., Manne et al., and Lombardo et al).

[3] = target: geranylgeranyl transferase I (GGTI) (Homo sapiens, UniProt P49354+P53609); assay: Prenyltransferase enzyme assay, GGTI; format: biochemical
Protocol: as §1

FT = FT (Homo sapiens, UniProt P49354+P49356); assay: Prenyltransferase enzyme assay, FT; format: biochemical
Protocol: as §1

[4] = target: T2, Stress induced-phosphoprotein 1 (Hsp70/Hsp90-organizing protein) (Homo sapiens, UniProt P31948); assay: Affinity capture on monomeric avidin, ALL cell fractions, MS peptide hits; format: binding
T2 construct: endogenous in cells; host or cells: ALL cells (quiescent), nuclear and cytoplasmic fractions
T2 sequence (P31948 whole entry): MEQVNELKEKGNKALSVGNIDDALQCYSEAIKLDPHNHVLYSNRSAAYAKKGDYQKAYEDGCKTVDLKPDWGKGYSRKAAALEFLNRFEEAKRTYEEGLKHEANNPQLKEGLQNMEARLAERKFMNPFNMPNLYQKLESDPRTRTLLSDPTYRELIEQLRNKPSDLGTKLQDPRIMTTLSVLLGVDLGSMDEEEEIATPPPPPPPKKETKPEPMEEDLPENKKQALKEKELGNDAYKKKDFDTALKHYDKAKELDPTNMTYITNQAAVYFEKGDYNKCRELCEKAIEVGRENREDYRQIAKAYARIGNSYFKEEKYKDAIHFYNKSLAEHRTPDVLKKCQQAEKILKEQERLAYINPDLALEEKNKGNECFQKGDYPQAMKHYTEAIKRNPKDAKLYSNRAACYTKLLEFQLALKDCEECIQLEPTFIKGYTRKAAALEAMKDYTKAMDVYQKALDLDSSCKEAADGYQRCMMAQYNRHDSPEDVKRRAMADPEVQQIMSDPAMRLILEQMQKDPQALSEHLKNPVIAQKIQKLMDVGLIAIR
Protocol: (§2) An important first step was to establish a source of cells that grew to high density and could remain viable even without replenishing the medium, so that they would be quiescent (Q). After several trials, the inventors settled on ALL cells. Nuclear and cytoplamic fractions were separated by low speed centrifugation after cell lysis with mild detergent. The nuclear fractions were treated with 0.5 M KCl and the chromatin spun out at 100,000 g for one hour. The cytoplasmic fraction was also spun at 100,000 g for one hour, glycerol was added to 20% and fractions frozen at −80 C. […] The fractions were loaded onto 1 ml columns of monomeric avidin beads that had been pretreated with biotin to block accessible sites and washed with pH 2.8 glycine buffer and the incubation buffer (see FIG. 10). Proteins were eluted from both columns with buffer containing 2 mM biotin, 10% TCA precipitated and analyzed on polyacrylamide gels. Bands A and B from the 1 mm gel shown in FIG. 11 were excised out and submitted to the proteomics group for analysis.

Protein phosphatase 1G = target: T3, Protein phosphatase 1G (Homo sapiens, UniProt O15355); assay: as above; format: binding
T3 construct: endogenous in cells; host or cells: ALL cells (quiescent), nuclear and cytoplasmic fractions
T3 sequence (O15355 1-546): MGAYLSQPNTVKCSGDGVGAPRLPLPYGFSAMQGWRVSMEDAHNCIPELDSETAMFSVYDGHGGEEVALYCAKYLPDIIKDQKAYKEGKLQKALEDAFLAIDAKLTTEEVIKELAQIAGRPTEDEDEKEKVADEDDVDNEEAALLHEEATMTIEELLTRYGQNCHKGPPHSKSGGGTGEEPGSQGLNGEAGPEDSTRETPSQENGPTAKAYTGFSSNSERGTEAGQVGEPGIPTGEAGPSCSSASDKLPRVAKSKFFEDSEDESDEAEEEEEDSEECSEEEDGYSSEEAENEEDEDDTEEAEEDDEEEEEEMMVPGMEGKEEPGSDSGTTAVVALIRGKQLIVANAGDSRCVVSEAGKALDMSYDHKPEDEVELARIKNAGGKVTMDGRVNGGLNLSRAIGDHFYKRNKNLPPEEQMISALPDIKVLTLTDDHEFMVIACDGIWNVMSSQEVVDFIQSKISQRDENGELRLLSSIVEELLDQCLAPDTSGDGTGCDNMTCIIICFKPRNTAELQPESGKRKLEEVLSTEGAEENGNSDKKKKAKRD
Protocol: as §2

[5] = target: T4, Programmed cell death (AIF) (Homo sapiens, UniProt O95831); assay: as above; format: binding
T4 construct: Two peptides were detected for AIF in band B of the BMS-844472 eluates that were absent from the control eluates; endogenous in cells; host or cells: ALL cells (quiescent), nuclear and cytoplasmic fractions
T4 sequence (O95831 102-613): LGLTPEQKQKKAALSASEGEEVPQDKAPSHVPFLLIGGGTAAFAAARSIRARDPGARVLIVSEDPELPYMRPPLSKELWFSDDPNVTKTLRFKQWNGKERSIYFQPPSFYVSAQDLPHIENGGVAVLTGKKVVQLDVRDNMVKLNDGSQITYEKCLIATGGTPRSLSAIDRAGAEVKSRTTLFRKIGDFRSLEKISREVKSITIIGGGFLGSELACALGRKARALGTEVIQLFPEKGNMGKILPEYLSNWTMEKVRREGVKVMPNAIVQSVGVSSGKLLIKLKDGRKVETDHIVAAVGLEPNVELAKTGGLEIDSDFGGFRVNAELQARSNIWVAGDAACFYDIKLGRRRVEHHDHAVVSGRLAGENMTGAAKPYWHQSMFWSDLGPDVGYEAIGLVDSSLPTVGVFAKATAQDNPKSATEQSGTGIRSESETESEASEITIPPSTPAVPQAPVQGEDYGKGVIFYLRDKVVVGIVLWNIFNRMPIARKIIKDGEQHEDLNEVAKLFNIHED
Protocol: as §2

[6] = tested on: cross-linker site in HCT-116 quiescent cell extracts; assay: Cross-linking competition with tritium labeled azido analogue BMS-540864; format: binding, human
HCT-116 cells [7] = assay: Flow cytometry of HCT-116 P and Q cells (BrdU, p85 PARP, activated caspase 3); format: cell-based, human
Protocol: Untreated HCT-116 cells in P or in Q state (Panel a) were analyzed by flow cytometry. The y axis represents cell numbers and the x axis DNA content. […] The x axis indicates the level of activated caspase while the y axis represents percentage of total fluorescence adjusted to 100%. […] The x axis indicates the level of BrdU incorporation, while the y axis indicates the p85 cleaved PARP cells.

O=c1[nH]cc(F)c(=O)[nH]1 [5-fluorouracil]
preferential cytotoxicity P versus Q (HCT-116 cells [1]): preferentially cytotoxic to P tumor cells

C/C(=C\c1csc(C)n1)[C@@H]1C[C@@H]2O[C@]2(C)CCC[C@H](C)[C@H](O)[C@@H](C)C(=O)C(C)(C)[C@@H](O)CC(=O)N1 [ixabepilone]
IC90 (HCT-116 cells [1]): 1.3 nM
relative sensitivity of P versus Q cells (HCT-116 cells [1]; P cells more sensitive): > 83 fold
tumor cures (HCT/VM46 xenograft; cured mice of group): did not produce any tumor cures
tumor growth delay (HCT/VM46 xenograft; mouse, in vivo): 1.1 LCK

Cn1cncc1[C@@](N)(c1ccc(Cl)cc1)c1ccc2c(c1)c(-c1cccc(Cl)c1)cc(=O)n2C [R-115777]
P/Q activity ratio (HCT-116 cells [1]): 0.83

NC(=O)N1CCC(CC(=O)N2CCC([C@H]3c4ncc(Br)cc4CCc4cc(Cl)cc(Br)c43)CC2)CC1 [SCH66336]
P/Q activity ratio (HCT-116 cells [1]): 0.74

CC(=O)O[C@H]1C(=O)[C@@]2(C)[C@H]([C@H](OC(=O)c3ccccc3)[C@]3(O)C[C@H](OC(=O)[C@H](O)[C@@H](NC(=O)c4ccccc4)c4ccccc4)C(C)=C1C3(C)C)[C@]1(OC(C)=O)CO[C@@H]1C[C@@H]2O [paclitaxel]
IC90 (HCT-116 cells [1]): 17.8 nM
Q cell values (IC90) (HCT-116 cells [1]; Q cells): not reached

N#Cc1ccc2c(c1)CN(S(=O)(=O)c1ccccc1)[C@H](Cc1ccccc1)CN2Cc1cnc[nH]1 [BMS-212347]
Activity in vivo, cures (HCT116 xenografts): 7/8
IC50 [2]: 41 nM
IC50 [3]: 1200 nM
P/Q selectivity (HCT-116 cells [1]): 47
IC50 (FT): 2.4 nM

Cn1cncc1CN1C[C@@H](Cc2ccccc2)N(S(=O)(=O)c2ccccc2)Cc2cc(C#N)ccc21 [BMS-223999]
Activity in vivo, LCK (log cell kill) when no cures were achieved (HCT116 xenografts): 0.4 LCK
Activity in vivo, cures (HCT116 xenografts): 0/8
IC50 [2]: 8 nM
IC50 [3]: 530 nM
IC50 (FT): 1.1 nM

N#Cc1ccc2c(c1)CN(S(=O)(=O)CCCNC(=O)CCCCCNC(=O)CCCC[C@H]1SC[C@H]3NC(=O)N[C@H]31)CCN2Cc1cnc[nH]1 [BMS-236724]
Peptide Hits Exp 1 [4]: 15
Peptide Hits Exp 2 [4]: 18
Peptide Hits Exp 1 (Protein phosphatase 1G): 4
Peptide Hits Exp 2 (Protein phosphatase 1G): 1
Peptide Hits Exp 1 [5]: 3
Peptide Hits Exp 2 [5]: 5

Cn1cncc1CN1C[C@@H](Cc2ccccc2)N(S(=O)(=O)c2cccs2)Cc2cc(C#N)ccc21 [BMS-225975]
competition for the cross-linker site [6]: able to compete
Activity in vivo, LCK (log cell kill) when no cures were achieved (HCT116 xenografts): 0.3 LCK
Activity in vivo, cures (HCT116 xenografts): 0/8
IC50 [2]: 12 nM
IC50 [3]: 900 nM
proapoptotic activity (HCT-116 cells [7]): does not induce apoptosis
P/Q activity ratio (HCT-116 cells [1]): 0.7
P/Q selectivity (HCT-116 cells [1]): 11-100 1.4
